# Patent publication EP4656642A1, “ESTROGEN RECEPTOR PROTEOLYSIS TARGETING CHIMERA COMPOUND AND USE THEREOF” (GAN & LEE PHARM CO., LTD, priority 2023, dated 2024)
# Legend:
# [1] = target: T1, AR protein (Homo sapiens, UniProt P10275, T878A); assay: Degradation of AR protein in LNCAP cells (Western blot, 8 h); assay type: cell-based; details: LNCaP FGC cells
# T1 construct: host or cells: LNCaP FGC
# T1 sequence (P10275 1-920 T878A): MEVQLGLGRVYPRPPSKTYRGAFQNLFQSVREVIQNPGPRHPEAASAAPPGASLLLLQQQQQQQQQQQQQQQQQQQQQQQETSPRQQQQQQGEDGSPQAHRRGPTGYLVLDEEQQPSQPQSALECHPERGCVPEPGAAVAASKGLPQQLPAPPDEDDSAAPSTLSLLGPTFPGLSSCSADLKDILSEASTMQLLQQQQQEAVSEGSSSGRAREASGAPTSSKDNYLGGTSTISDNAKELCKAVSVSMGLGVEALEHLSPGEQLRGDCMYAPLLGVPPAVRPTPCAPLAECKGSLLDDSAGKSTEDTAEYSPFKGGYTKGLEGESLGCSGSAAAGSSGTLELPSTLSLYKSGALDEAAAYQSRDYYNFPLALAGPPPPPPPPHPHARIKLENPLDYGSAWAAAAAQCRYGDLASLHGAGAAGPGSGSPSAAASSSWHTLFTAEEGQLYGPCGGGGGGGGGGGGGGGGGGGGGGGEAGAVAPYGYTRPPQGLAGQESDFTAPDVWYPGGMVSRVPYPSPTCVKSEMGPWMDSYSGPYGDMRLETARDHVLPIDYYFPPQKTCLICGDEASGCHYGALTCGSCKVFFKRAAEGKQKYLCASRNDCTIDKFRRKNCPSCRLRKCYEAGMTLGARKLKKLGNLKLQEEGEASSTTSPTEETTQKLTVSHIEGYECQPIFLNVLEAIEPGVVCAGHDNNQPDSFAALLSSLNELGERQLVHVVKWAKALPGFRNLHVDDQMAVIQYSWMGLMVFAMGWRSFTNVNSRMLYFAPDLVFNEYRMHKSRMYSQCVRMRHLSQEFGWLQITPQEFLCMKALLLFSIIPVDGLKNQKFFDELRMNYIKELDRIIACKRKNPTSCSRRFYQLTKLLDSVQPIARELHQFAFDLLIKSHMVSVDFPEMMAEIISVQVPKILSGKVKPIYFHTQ
# Protocol: After 8 h, the culture medium was discarded, and the cells were washed with PBS. After the cells were washed with PBS, RIPA lysis buffer containing 1% Protease Inhibitor Cocktail was added, and the total protein extract was obtained after lysis and centrifugation, and the protein concentration in the extract was detected by BCA method. Protein electrophoresis was carried out by SDS-PAGE, after which the proteins were transferred to PVDF (Millipore Sigma Catalog No. PSRP010R5) membrane by 100V constant voltage electrotransfer for 60 min, and the PVDF membrane was placed in 1×TBST solution with 5% milk and blocked at room temperature for 1h. […] The primary antibody solution was discarded, and the PVDF membrane was washed three times with 1× TBST for 5 min each. […] The secondary antibody solution was discarded, and the PVDF membrane was washed three times with 1× TBST for 5 min each. Western membrane imaging was performed using a dual-color infrared laser imaging system (Licor catalog number Odyssey CLX). Bands were analyzed in grayscale using the software Image Studio. For each sample, GAPDH protein bands were detected as internal reference. The degradation rates of the AR protein for the compounds and positive control sample were calculated based on the grayscale of the protein bands.
# [2] = tested on: VCaP cells; assay: Inhibition of proliferation of VCaP cells (WST-8, 168 hours); assay type: cell-based; details: VCaP cells, 168 hours, WST-8
# Protocol: Test Example 7 Inhibitory activity of the compounds disclosed in the present disclosure on the proliferation of VCaP cells
# VCaP cells (ATCC, CRL-2876) were cultured in DMEM (Gibco, 11995-065) complete medium containing 10% fetal bovine serum (Hyclone, SH30406.05). On the first day of the experiment, VCaP cells were inoculated in 96-well plates at a density of 15,000 cells/well using DMEM medium containing 10% fetal bovine serum, with 100µL of cell suspension per well, and placed in a cell culture incubator with 5% CO2 at 37°C overnight. […] The compound concentrations were prepared in complete DMEM medium and serially diluted 5-fold starting from 10 µM, resulting in a total of nine concentration points. Wells receiving 100 µL of DMEM medium containing 10% FBS only were used as blank controls. The plates were incubated at 37°C in a 5% CO2 incubator for 168 hours.
Structure (SMILES),"Degradation rates of the AR protein in LNCAP cells, 10 nM (%) [1]","Degradation rates of the AR protein in LNCAP cells, 100 nM (%) [1]",IC50 [2]
COc1cc(O[C@H]2C(C)(C)[C@H](NC(=O)c3ccc(N4CCC(CN5CCC6(CC5)COc5c6ccc6c5C(=O)N(C5CCC(=O)NC5=O)C6)(OC)CC4)cc3)C2(C)C)ccc1C#N (relative stereo) [2-293],62%,82%,5 nM
N#Cc1ccc(O[C@H]2CC[C@H](NC(=O)c3ccc(N4CCC(F)(CN5CCC6(CC5)COc5c6ccc6c5C(=O)N(C5CCC(=O)NC5=O)C6)CC4)nn3)CC2)cc1Cl (relative stereo) [2-315],33%,44%,7 nM
CC1(CN2CCC3(CC2)COc2c3ccc3c2C(=O)N(C2CCC(=O)NC2=O)C3)CCN(c2ccc(C(=O)N[C@H]3CC[C@H](Oc4ccc(C#N)c(Cl)c4)CC3)nn2)CC1 (relative stereo) [2-262],47%,68%,11 nM
COc1cc(O[C@H]2CC[C@H](NC(=O)c3ccc(N4CCC(C)(CN5CCC6(CC5)COc5c6ccc6c5C(=O)N(C5CCC(=O)NC5=O)C6)CC4)nn3)CC2)ccc1C#N (relative stereo) [2-261],53%,70%,12 nM
C[C@H]1CC2(CCN(c3ccc(N4CCC(CN5CCC6(CC5)COc5c6ccc6c5C(=O)N(C5CCC(=O)NC5=O)C6)CC4)cc3)CC2)CN1c1ccc(C#N)c(Cl)c1 (stereo partly drawn) [2-103],55%,79%,36 nM
COc1cc(O[C@H]2C(C)(C)[C@H](NC(=O)c3ccc(N4CCC(C)(CN5CCC6(CC5)COc5c6ccc6c5C(=O)N(C5CCC(=O)NC5=O)C6)CC4)cc3)C2(C)C)ccc1C#N (relative stereo) [2-292],43%,78%,3 nM
COc1cc(O[C@H]2C(C)(C)[C@H](NC(=O)c3ccc(N4CCC(CN5CCC6(CC5)COc5c6ccc6c5C(=O)N(C5CCC(=O)NC5=O)C6)CC4)cc3)C2(C)C)ccc1C#N (relative stereo) [2-318],58%,73%,1 nM
COC1(CN2CCC3(CC2)COc2c3ccc3c2C(=O)N(C2CCC(=O)NC2=O)C3)CCN(c2ccc(C(=O)N[C@H]3CC[C@H](Oc4ccc(C#N)c(Cl)c4)CC3)nn2)CC1 (relative stereo) [2-263],38%,69%,11 nM
COc1cc(O[C@H]2CC[C@H](NC(=O)c3ccc(N4CCC(F)(CN5CCC6(CC5)COc5c6ccc6c5C(=O)N(C5CCC(=O)NC5=O)C6)CC4)nn3)CC2)ccc1C#N (relative stereo) [2-316],49%,61%,2 nM
